Measurements reported in ChEMBL document CHEMBL4261607 (Eur J Med Chem, 2018).

Experiments:
[1] = Cytotoxicity against MDCK cells assessed as reduction in cell viability after 24 hrs by MTT assay; assay type: cell-based, Canis lupus familiaris; details: dog
[2] = Cytotoxicity in yeast assessed as reduction in cell proliferation; assay type: organism-based; details: saccharomyces cerevisiae, yeast cells
Influenza A virus = test: Antiviral activity against Influenza A virus H5N1 infected in MDCK cells after 2 to 3 days by crystal violet staining-based plaque reduction assay; assay type: functional, organism-based
[3] = target: Matrix protein 2 (Influenza A virus (A/Udorn/307/1972(H3N2)), UniProt P0DOF8)
Chain of Matrix protein 2 (Influenza A virus (A/Udorn/307/1972(H3N2)), UniProt P0DOF8) (P0DOF8 whole entry): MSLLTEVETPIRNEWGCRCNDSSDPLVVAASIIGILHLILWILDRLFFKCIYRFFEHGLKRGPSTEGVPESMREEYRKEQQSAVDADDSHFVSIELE

In the case of `N#CCCN(Cc1cccs1)S(=O)(=O)c1cccc(F)c1`, the CC50 at 24 h [1] is reported as greater than 206 µM and the CC50 [2] is reported as greater than 206 µM.

`N#CCCN(Cc1cccs1)S(=O)(=O)c1ccc(C#N)cc1` gave a CC50 at 24 h [1] greater than 201 µM and a CC50 [2] greater than 202 µM.

Compound `N#CCCN(Cc1ccco1)S(=O)(=O)c1ccc(Cl)cc1` has a CC50 at 24 h [1] greater than 205 µM and a CC50 [2] greater than 206 µM.

Compound `CCOC(=O)CCN(Cc1cccs1)S(=O)(=O)c1ccc(Br)cc1` has a CC50 at 24 h [1] greater than 154 µM and a CC50 [2] greater than 155 µM.

With `CCCN(Cc1cccs1)S(=O)(=O)c1ccc(Br)cc1` the CC50 at 24 h [1] was greater than 178 µM and the CC50 [2] was greater than 179 µM.

Compound `N#CCCN(Cc1cccs1)S(=O)(=O)c1ccc(C(F)(F)F)cc1` has a CC50 at 24 h [1] greater than 178 µM and a CC50 [2] greater than 179 µM.

`Cc1ccc(S(=O)(=O)N(CCC#N)Cc2ccco2)cc1` gave a CC50 at 24 h [1] greater than 219 µM and a CC50 [2] greater than 220 µM.

In the case of `N#CCCN(Cc1ccc[nH]1)S(=O)(=O)c1ccc(Br)cc1`, the CC50 at 24 h [1] is reported as greater than 181 µM and the CC50 [2] is reported as greater than 182 µM.

In the case of `COc1ccc(S(=O)(=O)N(CCC#N)Cc2ccco2)cc1`, the CC50 at 24 h [1] is reported as greater than 208 µM and the CC50 [2] is reported as greater than 209 µM.

`N#CCCN(Cc1cccs1)S(=O)(=O)c1ccc(F)cc1` showed a CC50 at 24 h [1] greater than 206 µM and a CC50 [2] greater than 206 µM.

`N#CCCN(Cc1cccs1)S(=O)(=O)c1ccc(N)cc1` gave a CC50 at 24 h [1] greater than 208 µM and a CC50 [2] greater than 179 µM.

For `COc1ccc(S(=O)(=O)N(CCC#N)Cc2cccs2)cc1`, the CC50 at 24 h [1] was greater than 198 µM and the CC50 [2] was greater than 199 µM.

For `Cc1ccc(S(=O)(=O)N(CCC#N)Cc2cccs2)cc1`, the CC50 at 24 h [1] was 127 µM and the CC50 [2] was greater than 209 µM.

With `N#CCCN(Cc1ccco1)S(=O)(=O)c1ccc(C(F)(F)F)cc1` the CC50 at 24 h [1] was greater than 186 µM and the CC50 [2] was greater than 187 µM.

`Cc1cc(C(=O)NCCSCc2ccc([N+](=O)[O-])cc2)c(C)o1` showed an EC50 (Influenza A virus) of 1.25 µM.

In the case of `N#CCCN(Cc1cccs1)S(=O)(=O)c1ccccc1F`, the CC50 at 24 h [1] is reported as greater than 206 µM and the CC50 [2] is reported as greater than 206 µM.

`O=S(=O)(c1ccc(Br)cc1)N(Cc1cccs1)Cc1cccs1` gave a CC50 at 24 h [1] of 81 µM and a CC50 [2] greater than 156 µM.

In the case of `N#CCCN(Cc1ccco1)S(=O)(=O)c1ccc(F)cc1`, the CC50 at 24 h [1] is reported as 216 to 227 µM and the CC50 [2] is reported as 216 to 217 µM.

`N#CCCN(Cc1ccco1)S(=O)(=O)c1ccc(C#N)cc1` gave a CC50 at 24 h [1] greater than 212 µM and a CC50 [2] greater than 212 µM.

Work on `O=C(O)CCN(Cc1cccs1)S(=O)(=O)c1ccc(Br)cc1` yielded a CC50 at 24 h [1] greater than 165 µM and a CC50 [2] greater than 166 µM.

`N#CCCN(Cc1cccs1)S(=O)(=O)c1ccc(Cl)cc1` showed a CC50 at 24 h [1] greater than 196 µM and a CC50 [2] greater than 197 µM.

In the case of `CC(=O)c1ccc(S(=O)(=O)N(CCC#N)Cc2cccs2)cc1`, the CC50 at 24 h [1] is reported as greater than 191 µM and the CC50 [2] is reported as greater than 192 µM.

`N#CCCN(Cc1cccs1)S(=O)(=O)c1ccc([N+](=O)[O-])cc1` showed a CC50 at 24 h [1] greater than 190 µM and a CC50 [2] greater than 191 µM.

`N#CCCN(Cc1ccccc1)S(=O)(=O)c1ccc(F)cc1` showed a CC50 at 24 h [1] greater than 210 µM and a CC50 [2] greater than 210 µM.

`N#CCCN(Cc1ccco1)S(=O)(=O)c1ccc(Br)cc1` showed a CC50 at 24 h [1] greater than 181 µM and a CC50 [2] greater than 182 µM.

Work on `CCCN(CCC#N)S(=O)(=O)c1ccc(Br)cc1` yielded a CC50 at 24 h [1] of 116 µM and a CC50 [2] greater than 202 µM.

Compound `Cc1cccc(S(=O)(=O)N(CCC#N)Cc2ccco2)c1` has a CC50 at 24 h [1] greater than 219 µM and a CC50 [2] greater than 220 µM.

`N#CCCN(Cc1cccs1)S(=O)(=O)c1ccc(Br)cc1` showed a CC50 at 24 h [1] greater than 173 µM and a CC50 [2] greater than 174 µM.

For `NC12CC3CC(CC(C3)C1)C2` [AMANTADINE], the CC50 at 24 h [1] was greater than 441 µM and the CC50 [2] was greater than 443 µM.

With `CCOC(=O)C1=C[C@@H](OC(CC)CC)[C@H](NC(C)=O)[C@@H](N)C1` [OSELTAMIVIR] the EC50 [3] was “Not Active” and the CC50 [2] was greater than 214 µM.
